# Laboratory results published in patent US5302705A, “6-O-methylerythromycin A oxime derivatives” (Taisho Pharmaceutical Co., Ltd., priority 1989, dated 1994).
# Where two headings read alike, the source gives them in different places.
# What was measured:
# S. aureus J-109 = assay: In vitro antibacterial activity (MIC), agar dilution technique; format: cell-based; details: Staphylococcus aureus
# Procedure: (§1) The in vitro antibacterial activity of the compounds of the present invention against various test bacteria was measured by an agar dilution technique using sensitivity test agar (Eiken) as a test medium according to the MIC method specified by the Japan Chemotherapeutic Society.
# (§2) The results are represented by the MIC value (minimum inhibitory concentration to microorganisms, mcg/ml), and shown in Table 1.
# S. aureus B1 = assay: as above; format: cell-based; details: Staphylococcus aureus
# Procedure: as §1, §2
# [1] = in vivo; cited from earlier work
# [2] = J109, S. aureus J-109, agar dilution, sensitivity test agar (Eiken), read-out: MIC value
# [3] = S. aureus B1, agar dilution, sensitivity test agar (Eiken), read-out: MIC value
SMILES,MIC (S. aureus J-109; [2]),MIC (S. aureus B1; [3]),oral absorption [1],"MIC (S. aureus J-109; J109, read-out: MIC value)","MIC (S. aureus B1; B1, read-out: MIC value)"
CC[C@H]1OC(=O)[C@H](C)[C@@H](O[C@H]2C[C@@](C)(OC)[C@@H](O)[C@H](C)O2)[C@H](C)[C@@H](O[C@@H]2O[C@H](C)C[C@H](N(C)C)[C@H]2O)[C@](C)(OC)C[C@@H](C)C(=NOCc2ccc(C(C)(C)C)cc2)[C@H](C)[C@@H](O)[C@]1(C)O [B],6.25 µg/mL,6.25 µg/mL,,,
"CC[C@H]1OC(=O)[C@H](C)[C@@H](O[C@H]2C[C@@](C)(OC)[C@@H](O)[C@H](C)O2)[C@H](C)[C@@H](O[C@@H]2O[C@H](C)C[C@H](N(C)C)[C@H]2O)[C@](C)(OC)C[C@@H](C)C(=NOCc2c(C)cc(C)cc2C)[C@H](C)[C@@H](O)[C@]1(C)O [Compound No. 1, 6-0-methylerythromycin A 9-[0-(2,4,6-trimethylbenzyl)oxime]]",6.25 µg/mL,6.25 µg/mL,,,
CC[C@H]1OC(=O)[C@H](C)[C@@H](O[C@H]2C[C@@](C)(OC)[C@@H](O)[C@H](C)O2)[C@H](C)[C@@H](O[C@@H]2O[C@H](C)C[C@H](N(C)C)[C@H]2O)[C@](C)(OC)C[C@@H](C)C(=NOCc2c(F)cccc2F)[C@H](C)[C@@H](O)[C@]1(C)O [Compound No. 8],12.5 µg/mL,12.5 µg/mL,,,
CC[C@H]1OC(=O)[C@H](C)[C@@H](O[C@H]2C[C@@](C)(OC)[C@@H](O)[C@H](C)O2)[C@H](C)[C@@H](O[C@@H]2O[C@H](C)C[C@H](N(C)C)[C@H]2O)[C@](C)(OC)C[C@@H](C)C(=NOCc2ccc(C(C)C)cc2)[C@H](C)[C@@H](O)[C@]1(C)O [Compound No. 55],12.5 µg/mL,12.5 µg/mL,,,
CC[C@H]1OC(=O)[C@H](C)[C@@H](O[C@H]2C[C@@](C)(OC)[C@@H](O)[C@H](C)O2)[C@H](C)[C@@H](O[C@@H]2O[C@H](C)C[C@H](N(C)C)[C@H]2O)[C@](C)(OC)C[C@@H](C)C(=NOCCCCc2ccccc2)[C@H](C)[C@@H](O)[C@]1(C)O [Compound No. 56],25 µg/mL,25 µg/mL,,,
CC[C@H]1OC(=O)[C@H](C)[C@@H](O[C@H]2C[C@@](C)(OC)[C@@H](O)[C@H](C)O2)[C@H](C)[C@@H](O[C@@H]2O[C@H](C)C[C@H](N(C)C)[C@H]2O)[C@](C)(O)C[C@@H](C)C(=O)[C@H](C)[C@@H](O)[C@]1(C)O [Erythromycin A],,,low and inconsistent,,
CC[C@H]1OC(=O)[C@H](C)[C@@H](O[C@H]2C[C@@](C)(OC)[C@@H](O)[C@H](C)O2)[C@H](C)[C@@H](O[C@@H]2O[C@H](C)C[C@H](N(C)C)[C@H]2O)[C@](C)(O)C[C@@H](C)C(=O)[C@H](C)[C@@H](O)[C@]1(C)O [a],,,,> 100 µg/mL,> 100 µg/mL
CC[C@H]1OC(=O)[C@H](C)[C@@H](O[C@H]2C[C@@](C)(OC)[C@@H](O)[C@H](C)O2)[C@H](C)[C@@H](O[C@@H]2O[C@H](C)C[C@H](N(C)C)[C@H]2O)[C@](C)(OC)C[C@@H](C)C(=O)[C@H](C)[C@@H](O)[C@]1(C)O [b],> 100 µg/mL,> 100 µg/mL,,,

# Now from value to compound, other results behind:
MIC (S. aureus J-109; [2]),MIC (S. aureus B1; [3]),SMILES,oral absorption [1],"MIC (S. aureus J-109; J109, read-out: MIC value)","MIC (S. aureus B1; B1, read-out: MIC value)"
6.25 µg/mL,6.25 µg/mL,CC[C@H]1OC(=O)[C@H](C)[C@@H](O[C@H]2C[C@@](C)(OC)[C@@H](O)[C@H](C)O2)[C@H](C)[C@@H](O[C@@H]2O[C@H](C)C[C@H](N(C)C)[C@H]2O)[C@](C)(OC)C[C@@H](C)C(=NOCc2c3ccccc3cc3ccccc23)[C@H](C)[C@@H](O)[C@]1(C)O [A],,,
12.5 µg/mL,12.5 µg/mL,CC[C@H]1OC(=O)[C@H](C)[C@@H](O[C@H]2C[C@@](C)(OC)[C@@H](O)[C@H](C)O2)[C@H](C)[C@@H](O[C@@H]2O[C@H](C)C[C@H](N(C)C)[C@H]2O)[C@](C)(OC)C[C@@H](C)C(=NOCC2CC3CCC2C3)[C@H](C)[C@@H](O)[C@]1(C)O (stereo partly shown) [Compound No. 45],,,
12.5 µg/mL,12.5 µg/mL,CC[C@H]1OC(=O)[C@H](C)[C@@H](O[C@H]2C[C@@](C)(OC)[C@@H](O)[C@H](C)O2)[C@H](C)[C@@H](O[C@@H]2O[C@H](C)C[C@H](N(C)C)[C@H]2O)[C@](C)(OC)C[C@@H](C)C(=NOC(C)c2ccccc2)[C@H](C)[C@@H](O)[C@]1(C)O (stereo partly shown) [D],,,
> 100 µg/mL,> 100 µg/mL,CC[C@H]1OC(=O)[C@H](C)[C@@H](O[C@H]2C[C@@](C)(OC)[C@@H](O)[C@H](C)O2)[C@H](C)[C@@H](O[C@@H]2O[C@H](C)C[C@H](N(C)C)[C@H]2O)[C@](C)(O)C[C@@H](C)/C(=N\OCOCCOC)[C@H](C)[C@@H](O)[C@]1(C)O [c],,,
> 100 µg/mL,> 100 µg/mL,CC[C@H]1OC(=O)[C@H](C)[C@@H](O[C@H]2C[C@@](C)(OC)[C@@H](O)[C@H](C)O2)[C@H](C)[C@@H](O[C@@H]2O[C@H](C)C[C@H](N(C)C)[C@H]2O)[C@](C)(OC)C[C@@H](C)C(=NOC)[C@H](C)[C@@H](O)[C@]1(C)O [d],,,
